Measured values reported in US10632192B2, “Pyrimidine compounds and their use as vaccine adjuvants” (Sumitomo Dainippon Pharma Co., Ltd., priority 2015, dated 2020).

Columns and labels:
C57BL/6 mouse [1] = test: OVA-specific IgG in plasma of mice immunized with OVA plus compound (ELISA); type: in vivo; settings: intramuscular, equal volume mixture (100 μL/mouse) of OVA 1 mg/mL and compound 0.1 mg/mL, booster two weeks later, plasma one week after booster, vs negative control group, FIG. 1
Description: (§1) For the first immunization, an equal volume mixture (100 μL/mouse) of ovalbumin (OVA) (1 mg/mL) and a compound of the above Examples (0.1 mg/mL) was administered intramuscularly to gastrocnemius muscle of C57BL/6 mouse. Two weeks later, an equal amount of the same mixture was administered intramuscularly to the gastrocnemius muscle for booster immunization. One week after the booster immunization, cardiac blood was collected under isoflurane inhalation anesthesia, and plasma was collected by centrifugation. OVA-specific IgG value in plasma was measured by ELISA using mouse anti-ovalbumin IgG ELISA kit (Alpha Diagnostic) (See FIG. 1).

C57BL/6 mouse [2] = test: OVA-specific IgG1 and IgG2c in immunized mouse plasma (ELISA); type: in vivo; settings: intramuscular OVA + compound, prime and booster, vs negative control group, FIG. 2
Description: as §1
Also, the OVA-specific IgG1 and IgG2c values in the immunized mouse plasma were determined by ELISA method. Specifically, OVA solution (SIGMA) was added to a 96-well plate, followed by blocking with 1% skim milk (Wako Pure Chemical Industries, Ltd.). A plasma sample, which was diluted with phosphate buffer, and then a secondary antibody (goat anti-mouse IgG1 (Jackson) or IgG2c (Southern Bio)) were added. SureBlue™ TMB microwell peroxidase substrate (KPL) was added, and the product of the enzyme reaction was measured by microplate reader (See FIG. 2).

spleen cells [3] = test: OVA-specific multifunctional CD4-positive T lymphocytes in spleen cells of immunized mice (flow cytometry); type: in vivo, mouse; settings: spleen cells of mice of Test Example 1, cultured overnight with OVA and Brefeldin A; IFN-γ, IL-2, TNF-α staining; vs negative control group; FIG. 3
Description: as §1
The spleen cells were prepared from the mouse of Test Example 1. The cells were added with OVA and Brefeldin A (eBioscience) and cultured overnight. The cultured cells were harvested, stained with APC-labeled anti-mouse CD3e antibody, FITC-labeled anti-mouse CD4 antibody and Fixable Viability Dye Fluor® 450 (eBioscience), and fixed in Fixation/Permeabilization buffer (eBioscience). After treatment in Permeabilization buffer (eBioscience), the cells were stained with antibody cocktail PerCP-Cy5.5-labeled anti-IFN-γ antibody, PE-Cy7-labeled anti-IL-2 antibody, and PE-labeled TNF-α (eBioscience). Data acquisition and analysis were performed using FACS Cant II (BD Biosciences) and FLOWJO software (TreeStar).

spleen cells [4] = test: MHC-restricted OVA-specific CD8-positive T lymphocytes in spleen cells of immunized mice (tetramer staining); type: in vivo, mouse; settings: spleen cells of mice of Test Example 1, H-2Kb OVA Tetramer-SINFEKL; vs negative control group; FIG. 4
Description: as §1
The spleen cells were also stained with eFluor 450-labeled anti-mouse CD3e antibody, Alexa Fluor® 647-labeled anti-mouse CD8 antibody, PE-labeled H-2Kb OVA Tetramer-SINFEKL (MBL) and Flexable Viability Dye eFluor 520 (eBioscience). Data acquisition and analysis were performed using FACS Cant II (BD Biosciences) and FLOWJO software (TreeStar).

spleen cells [5] = test: CD8-positive effector memory T lymphocytes in spleen cells of immunized mice (flow cytometry); type: in vivo, mouse; settings: spleen cells of mice of Test Example 1, CD44/CD62L staining; vs negative control group; FIG. 5
Description: as §1
The spleen cells were further incubated with antibody cocktail eFluor450-labeled anti-mouse CD3e antibody, Alexa Fluor647-labeled anti-mouse CD8 antibody, PE-Cy7-labeled anti-mouse CD44 antibody, PerCP-Cy5.5-labeled anti-mouse CD62L antibody and Fixable Viability Dye520 (eBioscience). Data acquisition and analysis were performed using FACS Cant II (BD Biosciences) and FLOWJO software (TreeStar).

Compound	OVA-specific IgG production in plasma (C57BL/6 mouse [1])	ratio of OVA-specific IgG2c to IgG1 in plasma (C57BL/6 mouse [2])	proportion of OVA-specific multifunctional CD4-positive T lymphocytes (spleen cells [3])	proportion of MHC-restricted OVA-specific CD8-positive T lymphocytes (spleen cells [4])	proportion of CD8-positive effector memory T lymphocytes (spleen cells [5])
CCC[C@@H](CCO)Nc1nc(N)nc(C)c1Cc1ccc(CN(C)CCNC(=O)CC/C(C)=C/CC/C(C)=C/CC/C(C)=C/CC/C=C(\C)CC/C=C(\C)CCC=C(C)C)cc1 [Example 1, (4E,8E,12E,16E,20E)-N-{2-[{4-[(2-amino-4-{[(3S)-1-hydroxyhexan-3-yl]amino}-6-methylpyrimidin-5-yl)methyl]benzyl}(methyl)amino]ethyl}-4,8,12,17,21,25-hexamethylhexacosa-4,8,12,16,20,24-hexaenamide]	induced significant OVA-specific IgG production	significantly increased	significantly increased	significantly increased	significantly increased
CCC[C@@H](CO)Nc1nc(N)nc(C)c1Cc1ccc(C(=O)NCCNC(=O)CC/C(C)=C/CC/C(C)=C/CC/C(C)=C/CC/C=C(\C)CC/C=C(\C)CCC=C(C)C)cc1OC [Example 4, 4-[(2-amino-4-{[(25)-1-hydroxypentan-2-yl]amino}-6-methylpyrimidin-5-yl)methyl]-N-(2-{[(4E,8E,12E,16E,20E)-4,8,12,17,21,25-hexamethylhexacosa-4,8,12,16,20,24-hexaenoyl]amino}ethyl)-3-methoxybenzamide]	induced significant OVA-specific IgG production	significantly increased	significantly increased	significantly increased	significantly increased
